Earlier results as cited in patent US20250049902A1, “Method of Developing a Peptide-Based Vaccine Conjugated with 1V209” (VERSITECH LIMITED, priority 2021, published 2025).

Columns and labels:
TLR7 pathway = details: reported, ref [3]
[1] = test system: antigen specific immune responses; details: small molecule simply mixed with antigens, ref [3]

COCCOc1nc(N)c2[nH]c(=O)n(Cc3ccc(C(=O)O)cc3)c2n1 [1V209, 4-[[6-Amino-7,8-dihydro-2-(2-methoxyethoxy)-8-oxo-9H-purin-9-yl]methyl]-benzoic acid]
TLR7 pathway stimulation (TLR7 pathway): can stimulate the TLR7 pathway as an agonist
induction of antigen specific immune responses [1]: can hardly induce antigen specific immune responses
